The series is described as follows: logP (pH2.3), physical properties of Tables 1 to 3. The class given is physicochemical. Particulars: for Physical properties: logP: Table 1. The text has this: However, the present invention is not limited to these compounds. In the tables, the term “physical properties” means a melting point or logp. The symbol “Me” represents a methyl group, “Et” represents an ethyl group, “Pr” represents a propyl group, “-n” represents normal, and “-i” represents iso.

As to `CCC(C[S+](C)[O-])NC(=O)c1c(Cl)cccc1C(=O)Nc1ccc(C(F)(C(F)(F)F)C(F)(F)F)cc1C` (mixture of isomers) [Compound 1-340], the “Physical properties logP(pH2.3)” value turned out to be 2.78.

Turning to `CCSC[C@H](C)NC(=O)c1c(I)cccc1C(=O)Nc1ccc(C(F)(C(F)(F)F)C(F)(F)F)c(F)c1C` [Compound 1-105], the “Physical properties: logP” value worked out at 4.71.

As for `CC[S+]([O-])C[C@H](C)NC(=O)c1c(I)cccc1C(=O)Nc1ccc(C(F)(C(F)(F)F)C(F)(F)F)c(F)c1C` (some centres unmarked) [Compound 1-106], the “Physical properties: logP” value was 2.97.

In the case of `CCS(=O)(=O)C[C@H](C)NC(=O)c1c(I)cccc1C(=O)Nc1ccc(C(F)(C(F)(F)F)C(F)(F)F)c(F)c1C` [Compound 1-107], the “Physical properties: logP” value came to 3.47.

In the case of `CCSC[C@H](C)NC(=O)c1c(I)cccc1C(=O)Nc1ccc(C(F)(F)C(F)(F)F)c(F)c1C` [Compound 1-108], the “Physical properties: logP” value is on record as 4.36.

`CCS(=O)(=O)C[C@H](C)NC(=O)c1c(I)cccc1C(=O)Nc1ccc(C(F)(F)C(F)(F)F)c(F)c1C` [Compound 1-110]: the “Physical properties: logP” value turned out to be 3.15.

As for `CCSC[C@H](C)NC(=O)c1c(I)cccc1C(=O)Nc1ccc(C(F)(F)C(F)(F)F)c(Cl)c1C` [Compound 1-111], the “Physical properties: logP” value was 4.53.

Turning to `CCSC[C@H](C)NC(=O)c1c(I)cccc1C(=O)Nc1cc(F)c(OC(F)(F)F)cc1Br` [Compound 1-114], the “Physical properties: logP” value is 4.28.

As for `CCS(=O)(=O)C[C@H](C)NC(=O)c1c(I)cccc1C(=O)Nc1cc(F)c(OC(F)(F)F)cc1Br` [Compound 1-116], the “Physical properties: logP” value worked out at 3.09.

Consider `CCSC[C@H](C)NC(=O)c1c(I)cccc1C(=O)Nc1cc(F)c(OC(F)(F)F)cc1Cl` [Compound 1-117], for which the “Physical properties: logP” value is 4.26.

Take `CCS(=O)(=O)C[C@H](C)NC(=O)c1c(I)cccc1C(=O)Nc1cc(F)c(OC(F)(F)F)cc1Cl` [Compound 1-119]: the “Physical properties: logP” value is recorded as 3.07.

Take `CCSC[C@H](C)NC(=O)c1c(I)cccc1C(=O)Nc1ccc(Br)c(F)c1C` [Compound 1-120]: the “Physical properties: logP” value is given as 3.65.

Turning to `CCS(=O)(=O)C[C@H](C)NC(=O)c1c(I)cccc1C(=O)Nc1ccc(Br)c(F)c1C` [Compound 1-122], the “Physical properties: logP” value was found to be 2.49.

As to `CCSC[C@H](C)NC(=O)c1c(I)cccc1C(=O)Nc1ccc(OC(F)(F)F)c(F)c1C` [Compound 1-123], the “Physical properties: logP” value is on record as 3.90.

With `CCS(=O)(=O)C[C@H](C)NC(=O)c1c(I)cccc1C(=O)Nc1ccc(OC(F)(F)F)c(F)c1C` [Compound 1-125], the “Physical properties: logP” value amounted to 2.77.

In the case of `CCSC[C@H](C)NC(=O)c1c(I)cccc1C(=O)Nc1ccc(C(F)(F)F)c(F)c1C` [Compound 1-126], the “Physical properties: logP” value amounted to 3.90.

Take `CCS(=O)(=O)C[C@H](C)NC(=O)c1c(I)cccc1C(=O)Nc1ccc(C(F)(F)F)c(F)c1C` [Compound 1-128]: the “Physical properties: logP” value is recorded as 2.74.

For the molecule `CCSC[C@H](C)NC(=O)c1c(I)cccc1C(=O)Nc1ccc(Br)c(Br)c1C` [Compound 1-129], the “Physical properties: logP” value amounted to 3.89.

For `CCS(=O)(=O)C[C@H](C)NC(=O)c1c(I)cccc1C(=O)Nc1ccc(Br)c(Br)c1C` [Compound 1-131], the “Physical properties: logP” value is reported as 2.67.

With `CCSC[C@H](C)NC(=O)c1c(I)cccc1C(=O)Nc1ccc(I)c(F)c1C` [Compound 1-132], the “Physical properties: logP” value is listed as 3.77.

Take `CCS(=O)(=O)C[C@H](C)NC(=O)c1c(I)cccc1C(=O)Nc1ccc(I)c(F)c1C` [Compound 1-134]: the “Physical properties: logP” value is on record as 2.59.

`CSC[C@H](C)NC(=O)c1c(I)cccc1C(=O)Nc1ccc(C(F)(F)C(F)(F)F)c(F)c1C` [Compound 1-135]: the “Physical properties: logP” value is listed as 4.03.

As to `Cc1c(NC(=O)c2cccc(I)c2C(=O)N[C@@H](C)C[S+](C)[O-])ccc(C(F)(F)C(F)(F)F)c1F` (some centres unmarked) [Compound 1-136], the “Physical properties: logP” value amounted to 2.50.

These data come from patent US20080051457A1, “Optically Active Phthalamide Derivative, Agricultural or Horticultural Insecticide, and Method of Using the Same” (priority 2004, published 2008).
